# Measurements as given in EP2826473A1, “NOVEL USE OF PATCHOULOL” (Chengdu Huasun Group Inc., Ltd., priority 2012, dated 2013).
# What was measured:
# [1] = tested on: Staphylococcus aureus MRSA; test: in vitro bacteriostatic activity, agar dilution MIC; format: cell-based
# [2] = tested on: Staphylococcus epidermidis MSSE; test: as above; format: cell-based; conditions: Staphylococcus epidermidis
# [3] = tested on: Staphylococcus aureus; test: in vitro bacteriostatic activity, agar dilution MIC, quality control strains; format: cell-based; conditions: Staphylococcus aureus, ATCC29213
# [4] = tested on: Staphylococcus epidermidis MRSE; test: in vitro bacteriostatic activity, agar dilution MIC; format: cell-based
# [5] = tested on: Enterococcus faecalis; test: as above; format: cell-based; conditions: Enterococcus faecalis
# [6] = tested on: Methicillin-resistant Staphylococcus aureus ATCC 43300; test: in vivo protection of model mice infected with methicillin-resistant Staphylococcus aureus; set-up: species or system KM mice; conditions: 4×10^5 units/kg, intraperitoneal injection once a day, within 14 days
# Description: Tested strains' virulence assay: Methicillin-resistant Staphylococcus aureus was cultured in incubator at 37°C to reach exponential phase of growth, and then diluted with normal saline to obtain different gradient concentrations of bacterial liquid. Different concentrations of bacterial liquid were taken and mixed with equivalent 10% gastric mucin. Bacterial liquid was administrated to mice at 0.5 ml/20 g by intraperitoneal injection, and 5% gastric mucin was used as control. Under a premise of no control mice death, the death rate of mice within 14 days was recorded, and the minimum bacterial volumes leading to death of whole mice were measured, i.e. the minimum lethal dose (MLD) of bacterial liquid.
# Pretesting of effective dose in vivo: Infection model mice infected by Methicillin-resistant Staphylococcus aureus were randomly divided into a few of groups (four mice per group), and a graded dose of each bacterial liquid was separately administrated to mice in each test group at one time per day. Moreover, administration of test drug was done one day ahead of schedule, and toxic substances were not eliminated until 0.5 h after administration on the second day. The death status of mice within 14 days was observed, to determine the dosage used in the formal experiment.
# KM mice (grade SPF), half male and half female, weighing 18-22 g were randomly divided into […] groups with ten mice for each group, i.e. the group receiving vancomycin hydrochloride for injection; the groups receiving high, medium, and low doses of patchoulol; blank group; model group; and control group receiving gastric mucin. All of the mice were administrated by intraperitoneal injection once a day. The mice were administrated one day in advance and then attacked after 0.5h of administration on the second day, i.e. intraperitoneally injected with methicillin-resistant Staphylococcus aureus liquid containing 5% gastric mucin. Amongst, mice in the model group were given normal saline instead of test drug; mice in the blank group were not given drugs and attacked; mice in the gastric mucin control group were not given test drug, but only injected with 5% gastric mucin without bacteria.
# The death status of mice within 14 days after injection of bacteria was observed, and its survival rate was recorded.
# [7] = tested on: Staphylococcus aureus MSSA; test: in vitro bacteriostatic activity, agar dilution MIC; format: cell-based
# [8] = tested on: Enterococcus faecium; test: as above; format: cell-based; conditions: Enterococcus faecium
# [9] = tested on: Staphylococcus epidermidis ATCC 12228; test: in vitro bacteriostatic activity, agar dilution MIC, quality control strain; format: cell-based; conditions: Staphylococcus epidermidis, ATCC12228
smiles,measurement,setting,value
CN[C@H](CC(C)C)C(=O)N[C@H]1C(=O)N[C@@H](CC(N)=O)C(=O)N[C@H]2C(=O)N[C@H]3C(=O)N[C@H](C(=O)N[C@H](C(=O)O)c4cc(O)cc(O)c4-c4cc3ccc4O)[C@H](O)c3ccc(c(Cl)c3)Oc3cc2cc(c3O[C@@H]2O[C@H](CO)[C@@H](O)[C@H](O)[C@H]2O[C@H]2C[C@](C)(N)[C@H](O)[C@H](C)O2)Oc2ccc(cc2Cl)[C@H]1O [vancomycin],MIC,"[1]; ATCC 43300 / MRSA, Methicillin-resistant Staphylococcus aureus ATCC 43300",1 µg/mL
same,MIC,"[1]; MRSA, Staphylococcus aureus MRSA 12-11",2 µg/mL
same,MIC,"[1]; MRSA, Staphylococcus aureus MRSA 12-12",1 µg/mL
same,MIC,"[1]; MRSA, Staphylococcus aureus MRSA 12-13",1 µg/mL
same,MIC,"[1]; MRSA, Staphylococcus aureus MRSA 12-14",1 µg/mL
same,MIC,"[1]; MRSA, Staphylococcus aureus MRSA 12-15",1 µg/mL
same,MIC,"[1]; MRSA, Staphylococcus aureus MRSA 12-16",2 µg/mL
same,MIC,"[1]; MRSA, Staphylococcus aureus MRSA 12-17",1 µg/mL
same,MIC,"[1]; MRSA, Staphylococcus aureus MRSA 12-18",1 µg/mL
same,MIC,"[1]; MRSA, Staphylococcus aureus MRSA 12-19",2 µg/mL
same,MIC,"[1]; MRSA, Staphylococcus aureus MRSA 12-20",1 µg/mL
same,MIC,[2]; Staphylococcus epidermidis MSSE 12-11,1 µg/mL
same,MIC,[2]; Staphylococcus epidermidis MSSE 12-12,2 µg/mL
same,MIC,[2]; Staphylococcus epidermidis MSSE 12-13,1 µg/mL
same,MIC,[2]; Staphylococcus epidermidis MSSE 12-14,2 µg/mL
same,MIC,[2]; Staphylococcus epidermidis MSSE 12-15,2 µg/mL
same,MIC,[2]; Staphylococcus epidermidis MSSE 12-16,0.5 µg/mL
same,MIC,[2]; Staphylococcus epidermidis MSSE 12-17,0.5 µg/mL
same,MIC,[2]; Staphylococcus epidermidis MSSE 12-18,0.25 µg/mL
same,MIC,[2]; Staphylococcus epidermidis MSSE 12-19,1 µg/mL
same,MIC,[2]; Staphylococcus epidermidis MSSE 12-20,1 µg/mL
same,MIC,[3],0.5 µg/mL
same,MIC,[4]; Staphylococcus epidermidis MRSE 12-11,8 µg/mL
same,MIC,[4]; Staphylococcus epidermidis MRSE 12-12,0.5 µg/mL
same,MIC,[4]; Staphylococcus epidermidis MRSE 12-15,2 µg/mL
same,MIC,[4]; Staphylococcus epidermidis MRSE 12-16,2 µg/mL
same,MIC,[4]; Staphylococcus epidermidis MRSE 12-17,2 µg/mL
same,MIC,[4]; Staphylococcus epidermidis MRSE 12-18,2 µg/mL
same,MIC,[4]; Staphylococcus epidermidis MRSE 12-19,2 µg/mL
same,MIC,[4]; Staphylococcus epidermidis MRSE 12-20,2 µg/mL
same,MIC,[4]; Staphylococcus epidermidis MRSE 12-21,2 µg/mL
same,MIC,[4]; Staphylococcus epidermidis MRSE 12-22,1 µg/mL
same,MIC,"[5]; ATCC29212, Enterococcus faecalis ATCC 29212",2 µg/mL
same,MIC,"[5]; ATCC51299, Enterococcus faecalis (high endurance) ATCC 51299",2 µg/mL
same,MIC,[5]; Enterococcus faecalis 12-11,> 128 µg/mL
same,MIC,[5]; Enterococcus faecalis 12-12,1 µg/mL
same,MIC,[5]; Enterococcus faecalis 12-13,2 µg/mL
same,MIC,[5]; Enterococcus faecalis 12-14,1 µg/mL
same,MIC,[5]; Enterococcus faecalis 12-17,2 µg/mL
same,MIC,[5]; Enterococcus faecalis 12-18,1 µg/mL
same,MIC,[5]; Enterococcus faecalis 12-19,2 µg/mL
same,MIC,[5]; Enterococcus faecalis 12-20,2 µg/mL
same,MIC,[5]; Enterococcus faecalis 12-21,1 µg/mL
same,MIC,[5]; Enterococcus faecalis 12-22,1 µg/mL
same,Survival number,[6]; 10 animals,10
same,Survial rate (%),[6],100%
same,MIC,[7]; Staphylococcus aureus MSSA 12-11,1 µg/mL
same,MIC,[7]; Staphylococcus aureus MSSA 12-13,1 µg/mL
same,MIC,[7]; Staphylococcus aureus MSSA 12-14,1 µg/mL
same,MIC,[7]; Staphylococcus aureus MSSA 12-15,1 µg/mL
same,MIC,[7]; Staphylococcus aureus MSSA 12-16,1 µg/mL
same,MIC,[7]; Staphylococcus aureus MSSA 12-17,1 µg/mL
same,MIC,[7]; Staphylococcus aureus MSSA 12-18,1 µg/mL
same,MIC,[7]; Staphylococcus aureus MSSA 12-19,1 µg/mL
same,MIC,[7]; Staphylococcus aureus MSSA 12-21,1 µg/mL
same,MIC,"[7]; Staphylococcus aureus, MSSA",1 µg/mL
same,MIC,"[8]; ATCC33186, Enterococcus faecium ATCC 33186",1 µg/mL
same,MIC,[8]; Enterococcus faecium 12-7,0.5 µg/mL
same,MIC,[8]; Enterococcus faecium 12-8,0.5 µg/mL
same,MIC,[8]; Enterococcus faecium 12-9,1 µg/mL
same,MIC,[8]; Enterococcus faecium 12-10,4 µg/mL
same,MIC,[8]; Enterococcus faecium 12-11,0.5 µg/mL
same,MIC,[8]; Enterococcus faecium 12-12,1 µg/mL
same,MIC,[8]; Enterococcus faecium 12-13,4 µg/mL
same,MIC,[8]; Enterococcus faecium 12-14,0.5 µg/mL
same,MIC,[8]; Enterococcus faecium 12-15,1 µg/mL
same,MIC,[8]; Enterococcus faecium 12-16,1 µg/mL
same,MIC,[9],1 µg/mL
